Measured values published in article PMC9774600, “Oligopeptide Sortase Inhibitor Modulates Staphylococcus aureus Cell Adhesion and Biofilm Formation” (Antibiotics, 2022).
“Also recorded” adds a separate entry of the source.

How the values were obtained:
[1] = system: S. aureus ATCC 29213 (MSSA) adhesion to Vero cells; test: Adhesion of LPRDA-modified S. aureus to Vero cells; format: cell-based, Staphylococcus aureus; conditions: for AI (adhesion index): control 5.2 ± 0.3; for PI (percentage of infected cells): control 100; for ML (microbial load, AI×PI): control 516.7 ± 31.1
Description: (§1) The influence of LPRDA on staphylococcal adhesive properties was evaluated using preliminary incubation of the studied bacterial strains with LPRDA for 18 h and subsequent microscopic detection of adhesion cases of the modified staphylococci to African green monkey kidney epithelial cells (Vero). The following parameters were determined from the adhesion experiments: adhesion index (AI), defined as the average number of attached bacterial cells per eukaryotic cell; percentage of infected cells (PI), defined as the proportion of Vero cells with bacteria adhered to their surface; microbial load (ML), defined as a product AI×PI; and adhesion inhibition index (AII), defined as the ratio of experimental AI to control.
(§2) Vero cells were seeded in 96-well plates at 25 × 10^3 cells/well and grown overnight. Bacterial cells (S. aureus ATCC 29213 or S. aureus ATCC 43300) were incubated with the oligopeptide LPRDA in the concentration range 12.5–100 µmol/L at 37 °C for 18 h with constant shaking at 100 rpm. Luria–Bertani (LB) medium and untreated bacteria served as a control. After incubation, the bacterial suspension was centrifuged at 10,000× g rpm for 10 min and washed twice with sterile PBS for 5 min at 10,000 rpm. The final bacterial concentrations were adjusted to the OD560 of 0.3 McFarland in sterile saline. Next, the monolayer of Vero cells in the 96-well plates was inoculated with 100 μL of the bacterial suspension with an equal volume of the stock DMEM culture medium and incubated for 1 h. The monolayer was washed three times with phosphate-buffered saline (PBS), followed by fixation with 4% formaldehyde for 60 min. Then, the wells of the plates were washed twice with PBS, dried, and stained with purified gentian violet solution (1%) for 15 min. The dye was removed, and images were captured in […] at 40× using an Evos FL microscope (Thermo Fisher Scientific, Waltham, MA, USA). Images were captured in 4–10 random fields of view at 40-fold magnification using an Evos FL microscope. Images were analyzed using ImageJ Fiji software v1.53c.

[2] = system: S. aureus ATCC 43300 (MRSA) adhesion to Vero cells; test: Adhesion of LPRDA-modified S. aureus to Vero cells; format: cell-based, Staphylococcus aureus; conditions: for AI (adhesion index) / PI (percentage of infected cells) / ML (microbial load, AI×PI): 18 h pre-incubation; for AI (adhesion index): control 7.6 ± 0.1; for PI (percentage of infected cells): control 100; for ML (microbial load, AI×PI): control 755.9 ± 10.6
Description: as §1, §2

[3] = system: S. aureus ATCC 29213 (MSSA) biofilm; test: Inhibition of biofilm formation assay; format: cell-based, Staphylococcus aureus; conditions: 100 µmol/L LPRDA
Description: (§3) The assay was performed according to the protocol described by O’Toole, with minor modifications. To evaluate the effect of LPRDA on biofilm formation by the S. aureus ATCC 29213 and S. aureus ATCC 43300 strains, 150 µL of sterile LB broth with 4% glucose containing 12.5–100 µmol/L concentrations of LPRDA was added to four wells of 96-well plates. Then, 50 µL of staphylococcal culture (1 × 10^7 CFU/mL) was added and incubated at 37 °C for 24 h. LB culture broth that was not treated with LPRDA was used as the positive control. After 24 h, the plates were washed with PBS to remove planktonic and dead cells, stained with a 0.1% solution of gentian violet for 20 min, followed by extraction of the bound dye with 96% ethanol. The optical density (OD) of the obtained extracts was measured at 570 nm using a SPECTROstar Nano spectrophotometer.
(§4) The bacterial strains were classified into categories according to the Stepanović criteria. Quantitative calculation of S. aureus CFU in the biofilm formed in the presence of LPRDA and in the control experiments was assessed by inoculation on Columbia agar according to the Koch procedure. Inhibition of biofilm formation was determined according to the Kumari method.

[4] = system: S. aureus ATCC 43300 (MRSA) biofilm; test: Inhibition of biofilm formation assay; format: cell-based, Staphylococcus aureus; conditions: 24 h
Description: as §3, §4

[5] = format: physicochemical
Excerpt: The pentapeptide LPRDA was synthesized using the solid-phase peptide 9-fluorenylmethoxycarbonyl chemistry method. […] HRMS (ESI, m/z): [M + H]^+ calculated for C24H42N8O8, 571.3204; found, 571.3188.

[6] = system: S. aureus; conditions: cited from earlier work
Excerpt: This concentration is at least eight times higher than those used for inducing antiadhesive effects, which is consistent with the LPRDA MIC > 200 µmol/L reported in [18]. A lack of bactericidal activity is an essential property for antivirulence therapeutics. The following experiments have found differ ...

[7] = system: community-associated MRSA strain USA300; conditions: 25 µmol/L LPRDA, compared with srtA mutants; cited from earlier work
Description: Wang et al. studied the community-associated MRSA strain USA300 and its srtA mutants in a biofilm formation assay. […] We studied the influence of LPRDA at concentrations of 12.5 to 100 µmol/L on biofilm production by the MSSA and MRSA strains used in this adhesion experiment. We observed a concentration-dependent decrease in the amount of biofilm formed by the S. aureus ATCC 29213 (MSSA) strain when it was incubated with increasing concentrations of LPRDA (F ...

[8] = system: S. aureus-induced mastitis; conditions: mouse model; cited from earlier work
Excerpt: Only a few SrtA inhibitors have been evaluated in vivo, and so far, none have advanced to clinical trials, which would necessitate an actual efficacy evaluation and follow-up of the in-depth studies of these compounds [17]. […] Due to our interest in the development of novel antibacterials with antiadhesive mechanisms of action, we selected a reference compound with ...

[9] = system: S. aureus SrtA; conditions: read-out: IC50 inhibition of the recombinant enzyme; cited from earlier work
[10] = MSSA pre-incubated 18 h with 100 µmol/L LPRDA, then 1 h with Vero cells, mean ± SD
[11] = MSSA, 12.5 µmol/L LPRDA, 18 h pre-incubation
[12] = MSSA, 25 µmol/L LPRDA, 18 h pre-incubation, mean ± SD
[13] = MSSA, 50 µmol/L LPRDA, 18 h pre-incubation, mean ± SD
[14] = MSSA, 100 µmol/L LPRDA, p = 0.021
[15] = highest studied LPRDA concentration (100 µmol/L), p = 0.01

With Leu-Pro-Arg-Asp-Ala [LPRDA] the “AI (adhesion index)” value [1, 10] was 3.4 ± 0.4; 0.021, the “PI (percentage of infected cells)” value [1, 10] was 84.0 ± 2.8; 0.021% and the “ML (microbial load, AI×PI)” value [1, 10] was 286.9 ± 38.8; 0.009. For the same substance, the “AI (adhesion index)” value [1, 11] was 5.4; 0.53, the “PI (percentage of infected cells)” value [1, 11] was 100; 0.53% and the “ML (microbial load, AI×PI)” value [1, 11] was 542.9; 0.53. For the same substance, the “AI (adhesion index)” value [1, 12] was 4.8 ± 0.2; 0.43, the “PI (percentage of infected cells)” value [1, 12] was 99.0 ± 0.8; 0.373% and the “ML (microbial load, AI×PI)” value [1, 12] was 471.1 ± 26.5; 0.414. For the same substance, the “AII (adhesion inhibition index, ratio of experimental AI to control)” value ([1]; MSSA, 50 µmol/L LPRDA) was 55.8%, the “AI (adhesion index)” value [1, 13] was 2.9 ± 0.2; 0.01 and the “PI (percentage of infected cells)” value [1, 13] was 85.0 ± 4.6; 0.054%. For the same substance, the “ML (microbial load, AI×PI)” value [1, 13] was 240.8 ± 9.2; 0.002, the “AII (adhesion inhibition index, ratio of experimental AI to control)” value ([1]; MSSA, 100 µmol/L LPRDA) was 65.4% and the AI reduction ([1]; MSSA, 100 µmol/L LPRDA, 1 h incubation with Vero cells) was 1.5 times. For the same substance, the “ML decrease relative to the control” value ([1]; MSSA, 100 µmol/L LPRDA, p = 0.009) was 45%, the “AI decrease relative to the control” value [1, 14] was 34.6% and the “PI decrease relative to the control” value [1, 14] was 16%. The Antiadhesive effect ([1]; MSSA, LPRDA concentrations below 50 µmol/L) was “did not have a notable antiadhesive effect”, the “AI (adhesion index)” value ([2]; 12.5 µmol/L LPRDA) was 7.9; 0.056 and the “PI (percentage of infected cells)” value ([2]; 12.5 µmol/L LPRDA) was 100; – %. For the same substance, the “ML (microbial load, AI×PI)” value ([2]; 12.5 µmol/L LPRDA) was 790.2; 0.056, the “PI (percentage of infected cells)” value ([2]; 25 µmol/L LPRDA) was 100; – % and the “AI (adhesion index)” value ([2]; 25 µmol/L LPRDA, mean ± SD) was 7.4 ± 0.1; 0.516. The “ML (microbial load, AI×PI)” value ([2]; 25 µmol/L LPRDA, mean ± SD) was 744.2 ± 8.3; 0.516, the “PI (percentage of infected cells)” value ([2]; 50 µmol/L LPRDA) was 100; – % and the “AI (adhesion index)” value ([2]; 50 µmol/L LPRDA, mean ± SD) was 7.3 ± 0.2; 0.332. The “ML (microbial load, AI×PI)” value ([2]; 50 µmol/L LPRDA, mean ± SD) was 727.4 ± 18.2; 0.33, the “PI (percentage of infected cells)” value ([2]; 100 µmol/L LPRDA) was 100; – % and the “ML (microbial load, AI×PI)” value ([2]; 100 µmol/L LPRDA, mean ± SD) was 679.2 ± 13.6; 0.01. The “AI (adhesion index)” value ([2]; 100 µmol/L LPRDA, then 1 h with Vero cells, mean ± SD) was 6.8 ± 0.1; 0.01, the Antiadhesive effect ([2]; 12.5–100 µmol/L LPRDA) was “did not induce an appreciable antiadhesive effect; also recorded: did not induce a significant antiadhesive effect” and the “AI lower than the control” value [2, 15] was “approximately 10%”. For the same substance, the “ML lower than the control” value [2, 15] was “approximately 10%”, the “Number of sessile bacterial cells in biofilm” value ([3]; 24 h, control 5 × 10^6 CFU/mL, inoculation on Columbia agar) was 5 × 10^5 CFU/mL and the Reduction in biofilm ([3]; 24 h, gentian violet OD 570 nm) was 44%. The “Decrease in sessile cell bacteria number” value ([3]; 24 h incubation) was 10 fold, the “Decrease in biofilm formation (biomass)” value ([4]; 100 µmol/L LPRDA (maximum decrease), gentian violet OD 570 nm) was 12% and the “Number of sessile bacteria versus control” value ([4]; 12.5–100 µmol/L LPRDA) was “No significant difference”. For the same substance, the Solubility [5] was “soluble in water”, the MIC [6] was over 200 µM and the Biofilm formation [7] was “attenuated biofilm formation to the level of knocked out bacteria”. The “Protection against S. aureus-induced mastitis” value [8] was “demonstrated protection against S. aureus-induced mastitis” and the IC50 [9] was 10.6 µM.
